We go through 4 compounds from US20240066133A1, “THERAPEUTIC AGENTS AND CONJUGATES THEREOF” (Beijing Xuanyi PharmaSciences Co., Ltd., priority 2020, published 2024).

By EC50 is commonly meant the concentration that produces a half-maximal response.

Experiment [1] concerns MC38 tumor cells. The note with it: IT 5 ug/mouse every three days, three injections; for anti-tumor efficacy (tumor growth, FIG. 1): single agent, subcutaneous MC38. The method, then: To Evaluate the in vivo efficacy of A5-I, A5-II, A6-I and A6-II, C57BL/6 mouse was subcutaneously inoculated in the right flank with MC38 tumor cells (1×10^6) in 40 ul of HBSS for tumor development. Treatment started when tumor size reached around 80-100 mm^3, on day 7 after tumor cell implantation. Compounds were administered by IT injection and repeated every three days with total three injections. […] Tumor volumes were measured twice to thrice weekly.

In experiment [2] the target is T1, Human STING (hSTING-R232) (Homo sapiens, UniProt Q86WV6, H232R).
T1 construct: host or cells: THP1-Dual KI-hSTING-R232 cells
T1 sequence (Q86WV6 whole entry H232R): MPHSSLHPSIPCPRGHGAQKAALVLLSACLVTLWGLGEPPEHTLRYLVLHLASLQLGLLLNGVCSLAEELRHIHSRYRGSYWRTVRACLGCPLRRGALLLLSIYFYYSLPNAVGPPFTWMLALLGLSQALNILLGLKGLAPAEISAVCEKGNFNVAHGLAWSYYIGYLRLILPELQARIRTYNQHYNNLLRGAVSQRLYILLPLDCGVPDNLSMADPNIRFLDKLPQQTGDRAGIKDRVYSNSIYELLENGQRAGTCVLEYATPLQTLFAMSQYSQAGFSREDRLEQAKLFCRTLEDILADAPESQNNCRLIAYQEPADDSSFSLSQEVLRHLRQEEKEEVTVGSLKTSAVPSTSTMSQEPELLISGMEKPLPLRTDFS
Kind of experiment: Activation of human STING signaling in THP1-Dual KI-hSTING-R232 cells (IRF promoter, QUANTI-Luc). The class given is cell-based. The note with it: THP1 cell line, 24 h, read-out: EC50 IRF3. The method, then: Activation of Human STING Signaling in THP1 Cell Line
The cells were treated with 20 μl/well of compounds at 8 concentrations in duplicate in 96-well plate, and incubate for 24 h. To measure IRF promoter activity, 15 μl of cell culture supernatant was mixed with 45 μl QUANTI-Luc in an opaque 96-well plate and immediately measured using Luminometer; to measure NF-κB promoter activity, 15 μl of supernatant was mixed with 90 μl QUANTI-Blue, and incubated at 37° C. for 90 minutes, and read at OD650 nm. EC50 was calculated by nonlinear regression fit with 4-parameter responsive curve fitting using GraphPad Version 8 software (Table 1).

The next experiment deals with T2, hSTING R232 (Homo sapiens, UniProt Q86WV6, H232R).
T2 construct: host or cells: 293T-Dual hSTING R232 cells
T2 sequence (Q86WV6 whole entry H232R): as above
Kind of experiment: IRF activation in 293T-Dual hSTING R232 cells (Quanti-Blue). The class given is cell-based. The note with it: 24 hr, read-out: EC50 IRF3. The method, then: A test compound with a serial of 1:3 dilution was prepared in complete medium, and 20 μL of the compound was added to the corresponding well, and incubated with the cells at 37° C. incubator for 24 hr.
To determine the effect on interferon regulatory factor (IRF) activation, 15 μL of cell culture supernatant was transferred into a fresh 96-half area-well plate, 90 μL of Quanti-Blue was added to each well and incubated at 37° C. for 90 min. OD at 650 nm was recorded. EC50 was calculated by nonlinear regression fit with 4-parameter responsive curve fitting using GraphPad Version 8 software (Table 2).

The subject of experiment [3] is MC38 tumor cells. Kind of experiment: MC38 murine syngeneic model, Example 98 (Table 5). The class given is in vivo, C57BL/6 mouse. The note with it: IT, Q3d × 3; doses per Table 5 (A5-I 3, A19 50 and 17, A33 17×2/8×1, A34 50, A38 51×1/17×2, A69 50, A71 50, A85 46 μg/mouse). The method, then: Example 98. Evaluation of Compound A5-I, A19, A33, A34, A38, A69, A71 and A85 in MC38 Murine Syngeneic Model
Compounds (listed in Table 5), were administered by IT injection.

Like-named read-outs stand apart in the source and are kept apart here.

As to `BP1(=O)OC[C@H]2O[C@@H](n3cnc4c(N)ncnc43)[C@H](F)[C@@H]2O[P@](=O)(S)OC[C@H]2O[C@@H](n3cnc4c(N)ncnc43)[C@H](F)[C@@H]2O1` (some centres unmarked) [Compound A6-I], the “anti-tumor efficacy (tumor growth, FIG. 1)” value (“anti-tumor efficacy” for short) in the experiment with MC38 tumor cells [1] was “significant anti-tumor efficacy”.
For `BP1(=O)OC[C@H]2O[C@@H](n3cnc4c(N)ncnc43)[C@H](F)[C@@H]2O[P@@](=O)(S)OC[C@H]2O[C@@H](n3cnc4c(=O)[nH]c(N)nc43)[C@H](F)[C@@H]2O1` (single isomer, unassigned) [Compound A1], the values for the EC50 (in experiment [2] (Assay Results 1 (average of more than 2 runs)); in experiment [2] (Assay Results 2 (single run)); at hSTING R232) were 450 nM, 564 nM and 59 nM, respectively.
As for `B[P@]1(=O)OC[C@H]2O[C@@H](n3cnc4c(N)ncnc43)[C@H](F)[C@@H]2O[P@@](=O)(S)OC[C@H]2O[C@@H](n3cnc4c(N)ncnc43)[C@H](F)[C@@H]2O1` [Compound A5-I, ((2R,3R,3aR,5S,7aR,9R,10R,10aR,12S,14aR)-2,9-bis(6-amino-9H-purin-9-yl)-3,10-difluoro-12-mercapto-5,12-dioxidooctahydro-2H,7H-difuro [3,2-d:3′,2′-j][1,3,7,9]tetraoxa[2,8]diphosphacyclododecin-5-yl)trihydroborate], in the experiment on MC38 tumor cells [1], the “tumor regression (FIG. 1)” value is recorded as “complete regression for all treated mice” and the “anti-tumor efficacy” value is recorded as “significant anti-tumor efficacy”. Besides, the “anti-tumor activity compared to vehicle-treated group (FIG. 5)” value with MC38 tumor cells [3] is “significantly improved anti-tumor activity”.
As for `B[P@@]1(=O)OC[C@H]2O[C@@H](n3cnc4c(N)ncnc43)[C@H](F)[C@@H]2O[P@](=O)(S)OC[C@H]2O[C@@H](n3cnc4c(N)ncnc43)[C@H](F)[C@@H]2O1` [Compound A6-II], the “anti-tumor efficacy” value in the experiment with MC38 tumor cells [1] was “significant anti-tumor efficacy”.
